Converted amounts (≈) assume the structure as drawn. Like-named read-outs stand apart in the source and are kept apart here.
Experiments:
L. brevis = assay: MIC against human gut microbiota; format: cell-based, Lactobacillus brevis; conditions: L. brevis ATCC-14864, MRS broth, 5% CO2
Bif. breve = assay: MIC against human gut microbiota; format: cell-based, Bifidobacterium breve; conditions: Bif. breve ATCC 15700, BHIS broth, anaerobic
Bif. angulatum = assay: MIC against human gut microbiota; format: cell-based, Bifidobacterium angulatum; conditions: Bif. angulatum HM- 1189, BHIS broth, anaerobic
B. dorei = assay: MIC against human gut microbiota; format: cell-based, Bacteroides dorei; conditions: B. dorei HM- 719, BHIS broth, anaerobic
E. faecium = assay: MIC against human gut microbiota; format: cell-based, Enterococcus faecium; conditions: E. faecium HM-202, TSB, aerobic
Bif. adolescentis = assay: MIC against human gut microbiota; format: cell-based, Bifidobacterium adolescentis; conditions: Bif. adolescentis HM- 633, BHIS broth, anaerobic
Bif. longum = assay: MIC against human gut microbiota; format: cell-based, Bifidobacterium longum; conditions: anaerobic; for MIC: Bifidobacterium longum, read-out: minimum inhibitory concentration (MIC)
[1] = test system: C. difficile clinical isolates; assay: MIC against a panel of 20 C. difficile clinical isolates (broth microdilution); format: cell-based, Clostridioides difficile; conditions: for MIC50: concentration that inhibited 50% of the 20 C. difficile clinical isolates; for MIC90: concentration that inhibited 90% of the 20 C. difficile clinical isolates; for MIC: read-out: minimum inhibitory concentration (MIC)
E. fecalis = assay: MIC against human gut microbiota; format: cell-based, Enterococcus faecalis; conditions: E. fecalis HM-970, TSB, aerobic
L. rhamanosus = assay: MIC against human gut microbiota; format: cell-based, Lactobacillus rhamnoosus; conditions: L. rhamanosus ATCC-53103, MRS broth, 5% CO2
L. casei = assay: MIC against human gut microbiota; format: cell-based; conditions: L. casei ATCC 334, MRS broth, 5% CO2
mycobacteria = test system: mycobacteria; design: method as in PMID 33916775; conditions: cited from earlier work
B. fragilis = assay: MIC against human gut microbiota; format: cell-based, Bacteroides fragilis; conditions: anaerobic; for MIC: Bacteroides fragilis, read-out: minimum inhibitory concentration (MIC)
[2] = test system: C. difficile ATCC BAA-1870; assay: MIC of active hits by broth microdilution; conditions: C. difficile ATCC BAA-1870, 48 h anaerobic
Bifidobacterium species = assay: MIC against human gut microbiota, summary in text; format: cell-based; conditions: summary over the Bifidobacterium strains of Table 4
[3] = Bif. longum HM- 845, BHIS broth
[4] = Bif. longum HM- 846, BHIS broth
[5] = Bif. longum HM- 847, BHIS broth
[6] = Bif. longum HM- 848, BHIS broth
[7] = B. fragilis HM- 709, BHIS broth
[8] = B. fragilis HM- 718, BHIS broth

Compound: Milbemycin oxime
- minimum inhibitory concentration (MIC) (L. brevis): >256 µg/mL
- minimum inhibitory concentration (MIC) (Bif. breve): 4 µg/mL
- minimum inhibitory concentration (MIC) (Bif. angulatum): 4 µg/mL
- minimum inhibitory concentration (MIC) (B. dorei): >256 µg/mL
- minimum inhibitory concentration (MIC) (E. faecium): 4 µg/mL
- minimum inhibitory concentration (MIC) (Bif. adolescentis): 4 µg/mL
- minimum inhibitory concentration (MIC) (Bif. longum; [3]): 8 µg/mL
- minimum inhibitory concentration (MIC) (Bif. longum; [4]): 8 µg/mL
- minimum inhibitory concentration (MIC) (Bif. longum; [5]): 8 µg/mL
- minimum inhibitory concentration (MIC) (Bif. longum; [6]): 8 µg/mL
- minimum inhibitory concentration (MIC) ([1]; C. difficile ATCC 630): 4 µg/mL
- minimum inhibitory concentration (MIC) ([1]; C. difficile ATCC 43255): 4 µg/mL
- minimum inhibitory concentration (MIC) ([1]; C. difficile ATCC BAA-1870 (Ribotype-027), purchased compounds, panel test): 8 µg/mL
- minimum inhibitory concentration (MIC) ([1]; C. difficile CD-1 (Ribotype-027)): 4 µg/mL
- minimum inhibitory concentration (MIC) ([1]; C. difficile CD-6 (Ribotype-027)): 4 µg/mL
- minimum inhibitory concentration (MIC) ([1]; C. difficile CD-10(Ribotype-027)): 4 µg/mL
- minimum inhibitory concentration (MIC) ([1]; C. difficile CD-12): 4 µg/mL
- minimum inhibitory concentration (MIC) ([1]; C. difficile CD-13): 8 µg/mL
- minimum inhibitory concentration (MIC) ([1]; C. difficile CD-15): 4 µg/mL
- minimum inhibitory concentration (MIC) ([1]; C. difficile CD-22): 8 µg/mL
- minimum inhibitory concentration (MIC) ([1]; C. difficile CD-23): 4 µg/mL
- minimum inhibitory concentration (MIC) ([1]; C. difficile CD-24): 4 µg/mL
- minimum inhibitory concentration (MIC) ([1]; C. difficile CD-26 (Ribotype-027)): 4 µg/mL
- minimum inhibitory concentration (MIC) ([1]; C. difficile CD-28): 8 µg/mL
- minimum inhibitory concentration (MIC) ([1]; C. difficile CD-29 (Ribotype-027)): 4 µg/mL
- minimum inhibitory concentration (MIC) ([1]; C. difficile CD-30): 4 µg/mL
- minimum inhibitory concentration (MIC) ([1]; C. difficile NR-49302): 4 µg/mL
- minimum inhibitory concentration (MIC) ([1]; C. difficile NR-49304): 8 µg/mL
- minimum inhibitory concentration (MIC) ([1]; C. difficile NR-49308): 4 µg/mL
- minimum inhibitory concentration (MIC) ([1]; C. difficile NR-49319): 8 µg/mL
- MIC50 [1]: 4 µg/mL
- MIC90 [1]: 8 µg/mL
- minimum inhibitory concentration (MIC) (E. fecalis): 8 µg/mL
- minimum inhibitory concentration (MIC) (L. rhamanosus): >256 µg/mL
- minimum inhibitory concentration (MIC) (L. casei): >256 µg/mL
- MIC (antimycobacterial activity) (mycobacteria): < 8 µg/mL
- minimum inhibitory concentration (MIC) (B. fragilis; [7]): 32 µg/mL
- minimum inhibitory concentration (MIC) (B. fragilis; [8]): >256 µg/mL
- MIC (μM) [2]: 4 µM
- MIC (μg/mL) [2]: 4.39 µg/mL

Compound: CCCCc1oc2ccc(NS(C)(=O)=O)cc2c1C(=O)c1ccc(OCCCN(CCCC)CCCC)cc1 [Dronedarone]
- MIC (Bifidobacterium species): 2 to 8 µg/mL (≈ 3.59 to 14.4 µM)
- MIC (L. brevis; Levilactobacillus brevis, ATCC14864, read-out: minimum inhibitory concentration (MIC)): 32 µg/mL (≈ 57.5 µM)
- MIC (Bif. breve; Bifidobacterium breve, ATCC15700, read-out: minimum inhibitory concentration (MIC)): 8 µg/mL (≈ 14.4 µM)
- MIC (Bif. angulatum; Bifidobacterium angulatum, read-out: minimum inhibitory concentration (MIC)): 8 µg/mL (≈ 14.4 µM)
- MIC (B. dorei; Phocaeicola dorei, read-out: minimum inhibitory concentration (MIC)): 8 µg/mL (≈ 14.4 µM)
- MIC (E. faecium; Enterococcus faecium, read-out: minimum inhibitory concentration (MIC)): 8 µg/mL (≈ 14.4 µM)
- MIC (Bif. adolescentis; Bifidobacterium adolescentis, read-out: minimum inhibitory concentration (MIC)): 8 µg/mL (≈ 14.4 µM)
- MIC (Bif. longum; [3]): 8 µg/mL (≈ 14.4 µM)
- MIC (Bif. longum; [4]): 8 µg/mL (≈ 14.4 µM)
- MIC (Bif. longum; [5]): 8 µg/mL (≈ 14.4 µM)
- MIC (Bif. longum; [6]): 8 µg/mL (≈ 14.4 µM)
- MIC50 ([1]; Clostridioides difficile, 48 h, read-out: MIC50): 4 µg/mL (≈ 7.18 µM)
- MIC ([1]; Clostridioides difficile, ATCC630, C. difficile ATCC 630): 4 µg/mL (≈ 7.18 µM)
- MIC ([1]; Clostridioides difficile, ATCC43255, C. difficile ATCC 43255): 4 µg/mL (≈ 7.18 µM)
- MIC ([1]; Clostridioides difficile, ATCCBAA1870, C. difficile ATCC BAA-1870 (Ribotype-027), purchased compounds, panel test): 4 µg/mL (≈ 7.18 µM)
- MIC ([1]; Clostridioides difficile, C. difficile CD-1 (Ribotype-027)): 4 µg/mL (≈ 7.18 µM)
- MIC ([1]; Clostridioides difficile, C. difficile CD-6 (Ribotype-027)): 4 µg/mL (≈ 7.18 µM)
- MIC ([1]; Clostridioides difficile, C. difficile CD-10(Ribotype-027)): 4 µg/mL (≈ 7.18 µM)
- MIC ([1]; Clostridioides difficile, C. difficile CD-12): 4 µg/mL (≈ 7.18 µM)
- MIC ([1]; Clostridioides difficile, C. difficile CD-13): 4 µg/mL (≈ 7.18 µM)
- MIC ([1]; Clostridioides difficile, C. difficile CD-15): 4 µg/mL (≈ 7.18 µM)
- MIC ([1]; Clostridioides difficile, C. difficile CD-22): 2 µg/mL (≈ 3.59 µM)
- MIC ([1]; Clostridioides difficile, C. difficile CD-23): 8 µg/mL (≈ 14.4 µM)
- MIC ([1]; Clostridioides difficile, C. difficile CD-24): 2 µg/mL (≈ 3.59 µM)
- MIC ([1]; Clostridioides difficile, C. difficile CD-26 (Ribotype-027)): 4 µg/mL (≈ 7.18 µM)
- MIC ([1]; Clostridioides difficile, C. difficile CD-28): 8 µg/mL (≈ 14.4 µM)
- MIC ([1]; Clostridioides difficile, C. difficile CD-29 (Ribotype-027)): 2 µg/mL (≈ 3.59 µM)
- MIC ([1]; Clostridioides difficile, C. difficile CD-30): 8 µg/mL (≈ 14.4 µM)
- MIC ([1]; Clostridioides difficile, C. difficile NR-49302): 4 µg/mL (≈ 7.18 µM)
- MIC ([1]; Clostridioides difficile, C. difficile NR-49304): 2 µg/mL (≈ 3.59 µM)
- MIC ([1]; Clostridioides difficile, C. difficile NR-49308): 4 µg/mL (≈ 7.18 µM)
- MIC ([1]; Clostridioides difficile, C. difficile NR-49319): 8 µg/mL (≈ 14.4 µM)
- MIC50 ([1]; Clostridioides difficile, read-out: MIC50): 4 µg/mL (≈ 7.18 µM)
- MIC90 ([1]; Clostridioides difficile, read-out: MIC90): 8 µg/mL (≈ 14.4 µM)
- MIC (E. fecalis; Enterococcus faecalis, read-out: minimum inhibitory concentration (MIC)): 4 µg/mL (≈ 7.18 µM)
- MIC (L. rhamanosus; Lactobacillus, ATCC53103, read-out: minimum inhibitory concentration (MIC)): 128 µg/mL (≈ 230 µM)
- MIC (L. casei; Lacticaseibacillus casei, ATCC334, read-out: minimum inhibitory concentration (MIC)): 64 µg/mL (≈ 115 µM)
- MIC (B. fragilis; [7]): 8 µg/mL (≈ 14.4 µM)
- MIC (B. fragilis; [8]): 8 µg/mL (≈ 14.4 µM)
- MIC (μM) [2]: 8 µM
- MIC ([2]; Clostridioides difficile, ATCCBAA1870, 48 h): 4.45 µg/mL

— PMC11288027, “Exploring novel microbial metabolites and drugs for inhibiting Clostridioides difficile” (mSphere, 2024)
